{
  "source": "patent US20100311821A1",
  "about": "“Synthetic vector” (priority 2009, published 2010)",
  "tested_on": "λ-DNA",
  "experiment": "AFM imaging of DNA complexes",
  "format": "physicochemical, lambda phage",
  "conditions": "50 μg/ml λ-DNA, stoichiometric KWK 64 μM (16 μM PP4, 8 μM PP8), 10 mM sodium cacodylate buffer",
  "experimental": "Preparation of DNA complexes. […] The mixture solution was vortexed for 30 seconds and allowed to equilibrate at room temperature for a few hours. The final DNA concentration was set at 50 μg/ml.\nCharacterization of DNA complexes structure by Atomic Force Microscopy. DNA complexes were deposited on freshly cleaved mica and then allowed to air dry. Tapping mode AFM imaging was performed on a Digital Instruments Nanoscope […] scanning probe microscope with a multimode head. Silicon probes (VistaProbes T300) with spring constant 40 N/m, resonant frequency, 300 kHz was used to obtain all images.\nLong linear lambda phage DNA, λ-DNA, (double-stranded, 48 kbp, MW=3×10^7 Da, contour length—17 μm) in dilute aqueous solution (100 μg ml^−1 DNA in 10 mM pH=6.5 sodium cacodylate buffer containing 0.5 mM EDTA) was used for packaging studies. […] The final DNA concentration was set at 50 μg ml^−1 throughout the studies in this example. The DNA-KWK, DNA-PP4 and DNA-PP8 complex structures were investigated by atomic force microscope (“AFM”) on mica substrates.",
  "data": [
    {"substance": "lysine-tryptophan-lysine [KWK]", "values": [
      {"measurement": "DNA compaction (AFM)", "result": "No DNA compaction"}
    ]}
  ]
}
